IC50 data for 28 molecules are collected here from patent US9540391B2, “Isomannide derivatives as inhibitors of soluble epoxide hydrolase” (SANOFI, priority 2013, dated 2017).

Where a name gives a salt, the structure may show the parent alone.

In the test the target is T1, recombinant sEH (Homo sapiens, UniProt P34913).
T1 construct: made in house; host or cells: Sf9 insect cells
T1 sequence (P34913 1-555): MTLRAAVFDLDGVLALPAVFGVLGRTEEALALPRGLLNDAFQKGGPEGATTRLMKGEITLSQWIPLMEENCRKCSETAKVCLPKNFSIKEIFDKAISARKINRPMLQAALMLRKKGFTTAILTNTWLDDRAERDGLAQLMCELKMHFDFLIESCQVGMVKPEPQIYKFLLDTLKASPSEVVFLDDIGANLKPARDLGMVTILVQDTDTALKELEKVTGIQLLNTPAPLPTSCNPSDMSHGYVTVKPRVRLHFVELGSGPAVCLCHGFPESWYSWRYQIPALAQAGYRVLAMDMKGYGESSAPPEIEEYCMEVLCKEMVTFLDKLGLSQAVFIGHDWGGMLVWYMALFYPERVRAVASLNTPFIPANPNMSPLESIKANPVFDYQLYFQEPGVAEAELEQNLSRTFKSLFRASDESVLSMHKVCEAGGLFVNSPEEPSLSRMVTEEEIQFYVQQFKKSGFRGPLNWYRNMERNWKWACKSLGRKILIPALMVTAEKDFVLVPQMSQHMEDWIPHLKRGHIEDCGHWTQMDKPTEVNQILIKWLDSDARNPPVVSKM
Put plainly: biochemical screening assay for inhibition of soluble epoxide hydrolase (fluorometric, Phome substrate). In a few lines:
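Human sEH from Sf9 cells (2 nM final) was pre-incubated 15 min at 30 °C with compound (0.0001–10 μM), then reacted 60 min at 30 °C with 5 μM Phome in 25 mM Hepes/0.01% albumin. Fluorescence of released 6-methoxy-2-naphthaldehyde was read before substrate and at end; IC50 from % inhibition.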

As for `CN1CCN(C(=O)c2ccc(O[C@H]3CO[C@H]4[C@@H]3OC[C@@H]4NC(=O)NC3CCCCC3)cc2)CC1` [Example 119, 1-Cyclohexyl-3-{(3S,3aR,6S,6aS)-6-[4-(4-methyl-piperazine-1-carbonyl)-phenoxy]-hexahydro-furo[3,2-b]furan-3-yl}-urea; trifluoroacetate], the IC50 is 21 nM.
The figure for `O=C(NC1CCCCC1)N[C@H]1CO[C@H]2[C@@H]1OC[C@@H]2Oc1ccc(C(=O)N2CCOCC2)cc1` [Example 120, 1-Cyclohexyl-3-{(3S,3aR,6S,6aS)-6-[4-(morpholine-4-carbonyl)-phenoxy]-hexahydro-furo[3,2-b]furan-3-yl}-urea] is 7 nM.
The figure for `Cc1nc(-c2ccc(O[C@H]3CO[C@H]4[C@@H]3OC[C@@H]4NC(=O)NC3CCCCC3)cc2)no1` [Example 121, 1-Cyclohexyl-3-{(3S,3aR,6S,6aS)-6-[4-(5-methyl-[1,2,4]oxadiazol-3-yl)-phenoxy]-hexahydro-furo[3,2-b]furan-3-yl}-urea] is 1 nM.
For `CCC(OC)(c1cccc(O[C@H]2CO[C@H]3[C@@H]2OC[C@@H]3NC(=O)NC2CCCCC2)c1)c1nccs1` (stereo partly drawn) [Example 122, 1-Cyclohexyl-3-{(3S,3aR,6S,6aS)-6-[3-(1-methoxy-1-thiazol-2-yl-propyl)-phenoxy]-hexahydro-furo[3,2-b]furan-3-yl}-urea], the IC50 was 2 nM.
As for `O=C(NC1CCCCC1)N[C@H]1CO[C@H]2[C@@H]1OC[C@@H]2Oc1ccccc1CN1CCOCC1` [Example 123, 1-Cyclohexyl-3-[(3S,3aR,6S,6aS)-6-(2-morpholin-4-ylmethyl-phenoxy)-hexahydro-furo[3,2-b]furan-3-yl]-urea; trifluoroacetate], the figure is 4 nM; as for `CC1(c2ccc(O[C@H]3CO[C@H]4[C@@H]3OC[C@@H]4NC(=O)NC3CCCCC3)cc2)CCCCC1` [Example 124, 1-Cyclohexyl-3-{(3S,3aR,6S,6aS)-6-[4-(1-methyl-cyclohexyl)-phenoxy]-hexahydro-furo[3,2-b]furan-3-yl}-urea], 4 nM.
The figure for `O=C(NC1CCCCC1)N[C@H]1CO[C@H]2[C@@H]1OC[C@@H]2Oc1cccc(C(F)(F)F)c1` [Example 125, 1-Cyclohexyl-3-[(3S,3aR,6S,6aS)-6-(3-trifluoromethyl-phenoxy)-hexa-hydro-furo[3,2-b]furan-3-yl]-urea] is 3 nM; for `O=C(NC1CCCCC1)N[C@H]1CO[C@H]2[C@@H]1OC[C@@H]2Oc1ccc(C(=O)N2CCNCC2)cc1` [Example 126, 1-Cyclohexyl-3-{(3S,3aR,6S,6aS)-6-[4-(piperazine-1-carbonyl)-phenoxy]-hexahydro-furo[3,2-b]furan-3-yl}-urea; trifluoroacetate] it is 30 nM; for `O=C(NC1CCCCC1)N[C@H]1CO[C@H]2[C@@H]1OC[C@@H]2Oc1cccc(Oc2ccccn2)c1` [Example 127, 1-Cyclohexyl-3-{(3S,3aR,6S,6aS)-6-[3-(pyridin-2-yloxy)-phenoxy]-hexa-hydro-furo[3,2-b]furan-3-yl}-urea] it is 7 nM.
As for `O=C(NC1CCCCC1)N[C@H]1CO[C@H]2[C@@H]1OC[C@@H]2Oc1cccc(CNC2CC2)c1` [Example 128, 1-Cyclohexyl-3-[(3S,3aR,6S,6aS)-6-(3-cyclopropylaminomethyl-phenoxy)-hexahydro-furo[3,2-b]furan-3-yl]-urea; trifluoroacetate], the IC50 is 10 nM.
The figure for `Cc1nc(-c2cccc(O[C@H]3CO[C@H]4[C@@H]3OC[C@@H]4NC(=O)NC3CCCCC3)c2)no1` [Example 129, 1-Cyclohexyl-3-{(3S,3aR,6S,6aS)-6-[3-(5-methyl-[1,2,4]oxadiazol-3-yl)-phenoxy]-hexahydro-furo[3,2-b]furan-3-yl}-urea] is 2 nM; for `O=C(NC1CCCCC1)N[C@H]1CO[C@H]2[C@@H]1OC[C@@H]2Oc1cccn2ccnc12` [Example 130, 1-Cyclohexyl-3-[(3S,3aR,6S,6aS)-6-(imidazo[1,2-a]pyridin-8-yloxy)-hexa-hydro-furo[3,2-b]furan-3-yl]-urea] it is 38 nM.
As for `O=C(NC1CCCCC1)N[C@H]1CO[C@H]2[C@@H]1OC[C@@H]2Oc1cc(F)ccc1Cl` [Example 131, 1-[(3S,3aR,6S,6aS)-6-(2-Chloro-5-fluoro-phenoxy)-hexahydro-furo[3,2-b]furan-3-yl]-3-cyclohexyl-urea], the figure is 2 nM.
As for `O=C(NC1CCCCC1)N[C@H]1CO[C@H]2[C@@H]1OC[C@@H]2Oc1cccc(Cl)c1` [Example 132, 1-[(3S,3aR,6S,6aS)-6-(3-Chloro-phenoxy)-hexahydro-furo[3,2-b]furan-3-yl]-3-cyclohexyl-urea], the IC50 turned out to be 2 nM.
The figure for `O=C(NC1CCCCC1)N[C@H]1CO[C@H]2[C@@H]1OC[C@@H]2Oc1cc(F)cc(F)c1` [Example 133, 1-Cyclohexyl-3-[(3S,3aR,6S,6aS)-6-(3,5-difluoro-phenoxy)-hexahydro-furo[3,2-b]furan-3-yl]-urea] is less than 1 nM; for `O=C(NC1CCCCC1)N[C@H]1CO[C@H]2[C@@H]1OC[C@@H]2Oc1ccccc1C(=O)N1CCOCC1` [Example 134, 1-Cyclohexyl-3-{(3S,3aR,6S,6aS)-6-[2-(morpholine-4-carbonyl)-phenoxy]-hexahydro-furo[3,2-b]furan-3-yl}-urea] it is 20 nM; for `O=C(NC1CCCCC1)N[C@H]1CO[C@H]2[C@@H]1OC[C@@H]2Oc1ccccc1CN1CCCCC1` [Example 135, 1-Cyclohexyl-3-[(3S,3aR,6S,6aS)-6-(2-piperidin-1-ylmethyl-phenoxy)-hexahydro-furo[3,2-b]furan-3-yl]-urea; trifluoroacetate] it is 20 nM.
The figure for `O=C(NC1CCCCC1)N[C@H]1CO[C@H]2[C@@H]1OC[C@@H]2Oc1ccccc1CNCC1CCCO1` (stereo partly drawn) [Example 136, 1-Cyclohexyl-3-[(3S,3aR,6S,6aS)-6-(2-{[(tetrahydro-furan-2-ylmethyl)-ao]-methyl}-phenoxy)-hexahydro-furo[3,2-b]furan-3-yl]-urea; trifluoroacetate] is 220 nM; for `O=C(NC1CCCCC1)N[C@H]1CO[C@H]2[C@@H]1OC[C@@H]2Oc1cccc2ccc(N3CCCC3)nc12` [Example 137, 1-Cyclohexyl-3-[(3S,3aR,6S,6aS)-6-(2-pyrrolidin-1-yl-quinolin-8-yloxy)-hexahydro-furo[3,2-b]furan-3-yl]-urea; trifluoroacetate] it is 4 nM; for `O=C(NC1CCCCC1)N[C@H]1CO[C@H]2[C@@H]1OC[C@@H]2Oc1ccc(Br)cc1` [Example 138, 1-[(3S,3aR,6S,6aS)-6-(4-Bromo-phenoxy)-hexahydro-furo[3,2-b]furan-3-yl]-3-cyclohexyl-urea] it is 3 nM.
As to `O=C(NC1CCCCC1)N[C@H]1CO[C@H]2[C@@H]1OC[C@@H]2Oc1cccc(Br)c1` [Example 139, 1-[(3S,3aR,6S,6aS)-6-(3-Bromo-phenoxy)-hexahydro-furo[3,2-b]furan-3-yl]-3-cyclohexyl-urea], the IC50 was found to be 2 nM.
The figure for `O=C(NC1CCCCC1)N[C@H]1CO[C@H]2[C@@H]1OC[C@@H]2Oc1cccc([N+](=O)[O-])c1` [Example 140, 1-Cyclohexyl-3-[(3S,3aR,6S,6aS)-6-(3-nitro-phenoxy)-hexahydro-furo[3,2-b]furan-3-yl]-urea] is 3 nM.
Consider `CCOC(=O)c1cccc(O[C@H]2CO[C@H]3[C@@H]2OC[C@@H]3NC(=O)NC2CCCCC2)c1` [Example 141, 3-[(3S,3aS,6S,6aR)-6-(3-Cyclohexyl-ureido)-hexahydro-furo[3,2-b]furan-3-yloxy]-benzoic acid ethyl ester], for which the IC50 came to 2 nM.
As for `O=C(NC1CCCCC1)N[C@H]1CO[C@H]2[C@@H]1OC[C@@H]2Oc1cccc(N2CCNCC2)c1` [Example 142, 1-Cyclohexyl-3-[(3S,3aR,6S,6aS)-6-(3-piperazin-1-yl-phenoxy)-hexahydro-furo[3,2-b]furan-3-yl]-urea; trifluoroacetate], the figure is 30 nM; as for `NC(=O)c1cccc(O[C@H]2CO[C@H]3[C@@H]2OC[C@@H]3NC(=O)NC2CCCCC2)c1` [Example 143, 3-[(3S,3aS,6S,6aR)-6-(3-Cyclohexyl-ureido)-hexahydro-furo[3,2-b]furan-3-yloxy]-benzamide], 6 nM.
As to `O=C(NC1CCCCC1)N[C@H]1CO[C@H]2[C@@H]1OC[C@@H]2Oc1cccc2c1CCC2=O` [Example 144, 1-Cyclohexyl-3-[(3S,3aR,6S,6aS)-6-(1-oxo-indan-4-yloxy)-hexahydro-furo[3,2-b]furan-3-yl]-urea], the concentration for half-maximal inhibition (IC50) is 1 nM.
As for `CC1CSc2c(O[C@H]3CO[C@H]4[C@@H]3OC[C@@H]4NC(=O)NC3CCCCC3)csc21` (stereo partly drawn) [Example 145, 1-Cyclohexyl-3-[(3S,3aR,6S,6aS)-6-(6-methyl-5,6-dihydro-thieno[3,2-b]thiophen-3-yloxy)-hexahydro-furo[3,2-b]furan-3-yl]-urea], the figure is 14 nM; as for `O=C(NC1CCCCC1)N[C@H]1CO[C@H]2[C@@H]1OC[C@@H]2Oc1ccc(F)c(Br)c1` [Example 146, 1-[(3S,3aR,6S,6aS)-6-(3-Bromo-4-fluoro-phenoxy)-hexahydro-furo[3,2-b]furan-3-yl]-3-cyclohexyl-urea], 2 nM.

Usually IC50 stands for the point on the concentration scale where inhibition reaches its midpoint.
